Measured values taken from BindingDB's records for doi:10.1016/j.bmcl.2010.09.092 (University of New Mexico School of Medicine, 2010).

Test: Inhibition of human alphaVbeta3 receptor expressed in african green monkey Vero E6 cells assessed as inhibition of SNV infection in cells by immunofluorescent assay

`O=C(NCc1cccs1)C(Cc1ccccc1)NS(=O)(=O)c1ccc2nsnc2c1` (racemic) [rac-2-(benzo[c][1,2,5]thiadiazole-5-sulfonamido)-3-phenyl-N-(thiophen-2-ylmethyl)propanamide] gave an EC50 of 2.5 nM.

Molecule `O=C(NCc1ccc2c(c1)OCO2)C(Cc1ccccc1)NS(=O)(=O)c1cccc2cccnc12` (racemic) [rac-N-(benzo[d][1,3]dioxol-5-ylmethyl)-3-phenyl-2-(quinoline-8-sulfonamido)propanamide] has an EC50 of 1.6 nM.

For `O=c1c(C=NCc2ccco2)c(CSc2ccc(Cl)cc2)[nH]n1-c1nc2ccccc2s1` [2-(benzo[d]thiazol-2-yl)-5-((4-chlorophenylthio)methyl)-4-((furan-2-ylmethylimino)methyl)-1H-pyrazol-3(2H)-one], the EC50 was 1.3 nM.
